Details: Liquid, Vibrating tube method

CCCC[n+]1ccccc1.F[B-](F)(F)F [1-butylpyridinium tetrafluoroborate]
Details | mass density [kg/m3]
283.15 K, 100 kPa | 1225.36
283.15 K, 5000 kPa | 1227.5
283.15 K, 10000 kPa | 1229.65
283.15 K, 15000 kPa | 1231.84
283.15 K, 20000 kPa | 1233.82
283.15 K, 25000 kPa | 1235.92
283.15 K, 30000 kPa | 1237.85
283.15 K, 35000 kPa | 1239.79
283.15 K, 40000 kPa | 1241.64
283.15 K, 45000 kPa | 1243.52
283.15 K, 50000 kPa | 1245.28
283.15 K, 55000 kPa | 1247
283.15 K, 60000 kPa | 1248.71
283.15 K, 65000 kPa | 1250.41
288.15 K, 100 kPa | 1221.64
288.15 K, 5000 kPa | 1223.77
288.15 K, 10000 kPa | 1225.95
288.15 K, 15000 kPa | 1228.23
288.15 K, 20000 kPa | 1230.2
288.15 K, 25000 kPa | 1232.3
288.15 K, 30000 kPa | 1234.24
288.15 K, 35000 kPa | 1236.23
288.15 K, 40000 kPa | 1238.24
288.15 K, 45000 kPa | 1240.13
288.15 K, 50000 kPa | 1241.78
288.15 K, 55000 kPa | 1243.6
288.15 K, 60000 kPa | 1245.23
288.15 K, 65000 kPa | 1247.03
293.15 K, 100 kPa | 1218.02
293.15 K, 5000 kPa | 1220.21
293.15 K, 10000 kPa | 1222.35
293.15 K, 15000 kPa | 1224.51
293.15 K, 20000 kPa | 1226.68
293.15 K, 25000 kPa | 1228.73
293.15 K, 30000 kPa | 1230.74
293.15 K, 35000 kPa | 1232.84
293.15 K, 40000 kPa | 1234.73
293.15 K, 45000 kPa | 1236.53
293.15 K, 50000 kPa | 1238.41
293.15 K, 55000 kPa | 1240.31
293.15 K, 60000 kPa | 1241.96
293.15 K, 65000 kPa | 1243.85
298.15 K, 100 kPa | 1214.34
298.15 K, 5000 kPa | 1216.62
298.15 K, 10000 kPa | 1218.93
298.15 K, 15000 kPa | 1221.01
298.15 K, 20000 kPa | 1223.33
298.15 K, 25000 kPa | 1225.43
298.15 K, 30000 kPa | 1227.48
298.15 K, 35000 kPa | 1229.43
298.15 K, 40000 kPa | 1231.45
298.15 K, 45000 kPa | 1233.36
298.15 K, 50000 kPa | 1235.32
298.15 K, 55000 kPa | 1237.1
298.15 K, 60000 kPa | 1238.81
298.15 K, 65000 kPa | 1240.44
303.15 K, 100 kPa | 1210.91
303.15 K, 5000 kPa | 1213.26
303.15 K, 10000 kPa | 1215.59
303.15 K, 15000 kPa | 1217.74
303.15 K, 20000 kPa | 1219.92
303.15 K, 25000 kPa | 1222.02
303.15 K, 30000 kPa | 1224.11
303.15 K, 35000 kPa | 1226.12
303.15 K, 40000 kPa | 1228.08
303.15 K, 45000 kPa | 1229.97
303.15 K, 50000 kPa | 1231.94
303.15 K, 55000 kPa | 1233.82
303.15 K, 60000 kPa | 1235.58
303.15 K, 65000 kPa | 1237.3
308.15 K, 100 kPa | 1207.32
308.15 K, 5000 kPa | 1209.57
308.15 K, 10000 kPa | 1211.82
308.15 K, 15000 kPa | 1214.09
308.15 K, 20000 kPa | 1216.23
308.15 K, 25000 kPa | 1218.48
308.15 K, 30000 kPa | 1220.54
308.15 K, 35000 kPa | 1222.62
308.15 K, 40000 kPa | 1224.5
308.15 K, 45000 kPa | 1226.48
308.15 K, 50000 kPa | 1228.36
308.15 K, 55000 kPa | 1230.34
308.15 K, 60000 kPa | 1232.17
308.15 K, 65000 kPa | 1234.06
313.15 K, 100 kPa | 1203.87
313.15 K, 5000 kPa | 1206.23
313.15 K, 10000 kPa | 1208.56
313.15 K, 15000 kPa | 1210.88
313.15 K, 20000 kPa | 1213.11
313.15 K, 25000 kPa | 1215.28
313.15 K, 30000 kPa | 1217.47
313.15 K, 35000 kPa | 1219.51
313.15 K, 40000 kPa | 1221.56
313.15 K, 45000 kPa | 1223.48
313.15 K, 50000 kPa | 1225.54
313.15 K, 55000 kPa | 1227.32
313.15 K, 60000 kPa | 1229.18
313.15 K, 65000 kPa | 1231.01
318.15 K, 100 kPa | 1200.36
318.15 K, 5000 kPa | 1202.66
318.15 K, 10000 kPa | 1205.15
318.15 K, 15000 kPa | 1207.31
318.15 K, 20000 kPa | 1209.58
318.15 K, 25000 kPa | 1211.7
318.15 K, 30000 kPa | 1213.85
318.15 K, 35000 kPa | 1216.03
318.15 K, 40000 kPa | 1218.05
318.15 K, 45000 kPa | 1220.04
318.15 K, 50000 kPa | 1222.02
318.15 K, 55000 kPa | 1223.9
318.15 K, 60000 kPa | 1225.83
318.15 K, 65000 kPa | 1227.74
323.15 K, 100 kPa | 1196.96
323.15 K, 5000 kPa | 1199.29
323.15 K, 10000 kPa | 1201.77
323.15 K, 15000 kPa | 1204.12
323.15 K, 20000 kPa | 1206.47
323.15 K, 25000 kPa | 1208.68
323.15 K, 30000 kPa | 1210.86
323.15 K, 35000 kPa | 1212.95
323.15 K, 40000 kPa | 1215.03
323.15 K, 45000 kPa | 1217
323.15 K, 50000 kPa | 1218.98
323.15 K, 55000 kPa | 1220.89
323.15 K, 60000 kPa | 1222.84
323.15 K, 65000 kPa | 1224.65
328.15 K, 100 kPa | 1193.36
328.15 K, 5000 kPa | 1195.72
328.15 K, 10000 kPa | 1198.11
328.15 K, 15000 kPa | 1200.54
328.15 K, 20000 kPa | 1202.82
328.15 K, 25000 kPa | 1205.08
328.15 K, 30000 kPa | 1207.36
328.15 K, 35000 kPa | 1209.57
328.15 K, 40000 kPa | 1211.63
328.15 K, 45000 kPa | 1213.66
328.15 K, 50000 kPa | 1215.6
328.15 K, 55000 kPa | 1217.56
328.15 K, 60000 kPa | 1219.5
328.15 K, 65000 kPa | 1221.56
333.15 K, 100 kPa | 1190.07
333.15 K, 5000 kPa | 1192.59
333.15 K, 10000 kPa | 1195
333.15 K, 15000 kPa | 1197.4
333.15 K, 20000 kPa | 1199.91
333.15 K, 25000 kPa | 1202.04
333.15 K, 30000 kPa | 1204.36
333.15 K, 35000 kPa | 1206.49
333.15 K, 40000 kPa | 1208.69
333.15 K, 45000 kPa | 1210.67
333.15 K, 50000 kPa | 1212.88
333.15 K, 55000 kPa | 1214.74
333.15 K, 60000 kPa | 1216.56
333.15 K, 65000 kPa | 1218.57

CCCC[n+]1ccccc1.O=S(=O)([O-])C(F)(F)F [1-butylpyridinium trifluoromethanesulfonate]
mass density [kg/m3]
Details | 303.15 K | 308.15 K | 313.15 K | 318.15 K | 323.15 K | 328.15 K | 333.15 K
100 kPa | 1311.77 | 1307.87 | 1303.91 | 1299.91 | 1296.31 | 1292.18 | 1288.27
5000 kPa | 1314.63 | 1310.78 | 1306.89 | 1303.07 | 1298.89 | 1295.18 | 1291.41
10000 kPa | 1317.44 | 1313.65 | 1309.74 | 1305.66 | 1302.15 | 1298.11 | 1294.46
15000 kPa | 1320.2 | 1316.6 | 1312.65 | 1308.66 | 1304.98 | 1301.2 | 1297.41
20000 kPa | 1322.82 | 1319.24 | 1315.17 | 1311.4 | 1307.88 | 1304.07 | 1300.4
25000 kPa | 1325.53 | 1321.85 | 1317.99 | 1314.14 | 1310.7 | 1306.75 | 1303.31
30000 kPa | 1328.06 | 1324.38 | 1320.63 | 1316.74 | 1313.34 | 1309.49 | 1306.06
35000 kPa | 1330.48 | 1326.93 | 1323.08 | 1319.52 | 1315.79 | 1312.17 | 1308.77
40000 kPa | 1332.93 | 1329.48 | 1325.67 | 1322.07 | 1318.44 | 1314.65 | 1311.33
45000 kPa | 1335.28 | 1331.89 | 1328.04 | 1324.29 | 1321.03 | 1317.18 | 1313.93
50000 kPa | 1337.67 | 1333.97 | 1330.42 | 1326.61 | 1323.34 | 1319.65 | 1316.36
55000 kPa | 1339.98 | 1336.34 | 1332.73 | 1328.88 | 1325.68 | 1322 | 1318.77
60000 kPa | 1342.03 | 1338.51 | 1334.95 | 1331.4 | 1328.01 | 1324.3 | 1320.81
65000 kPa | 1344.13 | 1340.54 | 1337.08 | 1333.55 | 1330.03 | 1326.69 | 1323.38

Source: the NIST ThermoML archive (doi:10.1016/j.fluid.2011.12.029)
